# What was measured:
# melanoma cells = assay: Tumor growth inhibition and overall survival, two doses of Compound B (Example 14); assay type: in vivo, mice
# Protocol: This study was designed to evaluate the effects of two different doses of Compound B on tumor growth and the overall survival of animals implanted SC with 10^5 melanoma cells. The study was carried out in accordance with the study described in Example 13, except that mice received either placebo, 0.4 mg/mouse PO QD of Compound B for seven days starting at day 7 after tumor implantation, or 4 mg/mouse PO QD of Compound B for seven days starting at day 7 after tumor implantation.
# B16F10 melanoma cells [1] = assay: Lung metastasis and survival after IV B16F10 melanoma cells (Example 16); assay type: in vivo, C57BL6 mice; conditions: 4 mg/mouse orally daily for two weeks
# Protocol: C57BL6 mice received 10^5 B16F10 melanoma cells via IV injection at day 0. At day 7, mice were randomized into one of two groups (n=6 per group): an untreated group and a group treated orally with Compound B at 4 mg/mouse daily for two weeks.
# At the end of the first week of treatment (14 days after tumor injection), three mice from each group were euthanized, and lung metastasis was counted (FIG. 11A). By the end of the second week of treatment (21 days after tumor injection), two out of the three remaining control mice had died. The remaining control mouse and the three remaining Compound B-treated mice were euthanized, and lung metastasis assessed (FIG. 111B).
# CTLA-4 = assay: Percent CTLA-4+/CD8+ T-cells in splenocytes after a single dose, melanoma murine model; assay type: in vivo, mice
# Protocol: The pharmacodynamic (PD) effects of a single IV dose of Compound B in a melanoma murine model were evaluated. B16F10 melanoma cells were grown in RPMI 1640 media supplemented with 10% FBS and antibiotics (penicillin/streptomycin) using T75 flasks. When cells reached 70-80% confluency, they were treated with 3 ml of 0.25% Trypsin/EDTA. Afterward, detached cells were harvested. A single-cell suspension was prepared in PBS. An IV injection of 10^5 cells in mice marked day −3 of the experiment.
# Animals were housed four per cage, and had access to food and water ad libitum. Compound B was dissolved in sterile PBS, and pH was adjusted to approximately 7.5. Sterile PBS served as control.
# Three days after the IV injection of melanoma cells, animals in the baseline group (n=3) were sacrificed and their spleens were collected for KLRG-1, CTLA-4, and PD-1 analysis. At each predetermined time-point (24, 48, and 120 hours after dosing) three animals from each group were sacrificed for splenocyte analysis of KLRG-1, CTLA-4, and PD-1 expression levels, and expression levels were compared to baseline.
# Spleens collected for splenocyte analysis were prepared into a single-cell suspension for cellular phenotyping by flow cytometry. Cells were stained and gated for CD8. Percent KLRG-1+, CTLA-4+, and PD-1+ CD8+ T-cells were evaluated using flow cytometry.
# [2] = tested on: KLRG-1, CTLA-4, TIM-3, PD-1, IFNγ/Granzyme B, FoxP3; assay: Ex vivo flow cytometry of splenocytes after seven doses, murine melanoma model (Example 13); assay type: in vivo, mice; conditions: 7 doses, Compound B 4 mg/mouse PO QD, Compound C 2.5 mg/mouse IV QD; for inhibition of CTLA-4 as compared to control / inhibition of KLGR-1 as compared to control / inhibition of PD-1 as compared to control / inhibition of TIM-3 as compared to control: CD8+ splenocytes, one mouse per group
# Protocol: This study was designed to evaluate the effects of Compound B and Compound C on tumor growth and the overall survival of animals implanted SC with 10^5 melanoma cells. Furthermore, ex vivo analysis of splenocytes at the end of dosing was used to evaluate change in the T-cell population and function. FIG. 8A is a diagram of the study design.
# Animals were housed four per cage and had access to food and water ad libitum. Compound B was dissolved in sterile PBS, and pH was adjusted to approximately 7.5. Compound C was first dissolved in DMSO before diluting in sterile PBS. Sterile PBS was used as a control. Compound B was dosed at 4 mg/mouse PO QD. This dose was expected to result in an exposure equivalent to a 1 mg/mouse IV dose. Compound C was dosed at 2.5 mg/mouse IV.
# B16F10 melanoma cells were grown in RPMI 1640 media supplemented with 10% FBS and antibiotics (penicillin/streptomycin) using T75 flasks. When cells reached 70-80% confluency, they were treated with 3 ml of 0.25% trypsin/EDTA. Detached cells were harvested. A single-cell suspension was prepared in PBS. A dorsal SC injection of 10^5 cells in mice marked day 0 of the experiment. Animals were monitored daily, and tumors were measured twice a week.
# For tumor growth inhibition, animals were divided into 3 groups. The control group received an IV injection of PBS to match the start time, dosing volume, and dosing frequency of the Compound C treatment group. The treatment group received 100 μl of 4 mg/mouse PO QD of Compound B for 7 days starting at day 7 after tumor implantation, or 2.5 mg/mouse IV QD of Compound C. The endpoint was reached when the tumor reached 1 cm^3. Tumor volume was calculated using the following formula: […]
# On day 14, one mouse from each group was sacrificed for ex vivo analysis. One animal with an average tumor size was selected from the control group and the Compound B treatment group. Since no animals in the Compound C treatment group had any visible tumors by day 14, one mouse was selected at random from the Compound C treatment group.
# Spleens were collected and a single-cell suspension was prepared for cellular phenotyping by flow cytometry. Cells were stained and gated for CD8. IFNγ, Granzyme B (GzmB), KLRG-1, CTLA-4, TIM-3, and PD-1 expression was evaluated. Cells gated for CD4 were evaluated for FoxP3 expression.
# B16F10 melanoma cells [3] = assay: Dose-dependent tumor regression in established B16F10 tumors (Example 15); assay type: in vivo, C57BL6 mice
# Protocol: C57BL6 mice received 10^5 B16F10 melanoma cells via SC injection at day 0. Tumor growth was monitored until tumor size reached 200 to 300 mm^3, at which time the mouse was randomized into one of the treatment groups or the control group. Mice were dosed orally until the end of the study.
smiles,measurement,setting,value
"O=C(O)[C@H](O)[C@@H](O)C(=O)OCCCc1ccccc1 [Compound B, (2R,3R)-2,3-dihydroxy-4-oxo-4-(3-phenylpropoxy)butanoic acid]",efficacy of low dose relative to high-dose (4 mg) treatment,melanoma cells; 0.4 mg PO,70%
same,survival,melanoma cells; 0.4 mg and 4 mg/mouse PO QD groups,significant increase in survival
same,mice tumor-free for at least 10 days after treatment stopped,melanoma cells; 0.4 mg/mouse PO QD for seven days,70%
same,mice tumor-free for at least 10 days after treatment stopped,melanoma cells; 4 mg/mouse PO QD for seven days,90%
same,lung metastasis,B16F10 melanoma cells [1],"controlled (e.g., prevented) metastasis"
same,survival compared to untreated mice,B16F10 melanoma cells [1],improved survival
same,"CTLA-4+/CD8+ T-cells, mean","CTLA-4; 0.14 mg/mouse IV single dose, 24 h",9.8%
same,"CTLA-4+/CD8+ T-cells, mean","CTLA-4; 0.14 mg/mouse IV single dose, 48 h",5.3%
same,"CTLA-4+/CD8+ T-cells, mean","CTLA-4; 0.14 mg/mouse IV single dose, 120 h",11.9%
same,"CTLA-4+/CD8+ T-cells, mean","CTLA-4; 0.7 mg/mouse IV single dose, 24 h",8.5%
same,"CTLA-4+/CD8+ T-cells, mean","CTLA-4; 0.7 mg/mouse IV single dose, 48 h",5.7%
same,"CTLA-4+/CD8+ T-cells, mean","CTLA-4; 0.7 mg/mouse IV single dose, 120 h",12.5%
same,"CTLA-4+/CD8+ T-cells, mean","CTLA-4; 1.4 mg/mouse IV single dose, 24 h",7.4%
same,"CTLA-4+/CD8+ T-cells, mean","CTLA-4; 1.4 mg/mouse IV single dose, 48 h",5.6%
same,"CTLA-4+/CD8+ T-cells, mean","CTLA-4; 1.4 mg/mouse IV single dose, 120 h",11.7%
same,decrease from baseline in CTLA-4+/CD8+ T-cells,"CTLA-4; single IV dose (0.14, 0.7, 1.4 mg), 48 h",approximately 35%
same,reduction in CTLA-4+/CD8+ T-cells compared to same time point in control group,"CTLA-4; single IV injection, 48 h",approximately 38%
same,decrease in FoxP3 positive CD4+ T-cells compared to placebo,[2],1.5%
same,increase in GrzmB/INFγ double-positive CD8+ T-cells compared to placebo,[2],25%
same,inhibition of CTLA-4 as compared to control,[2],42%
same,inhibition of KLGR-1 as compared to control,[2],55%
same,inhibition of PD-1 as compared to control,[2],13%
same,inhibition of TIM-3 as compared to control,[2],63%
same,day by which all animals died of disease,"B16F10 melanoma cells [3]; 0.1 mg PO, tumors 200 to 300 mm^3 at start",≤ 20 days
same,day by which animals died,B16F10 melanoma cells [3]; 0.4 mg PO,≤ 30 days
same,tumor progression versus low-dose group and untreated mice,B16F10 melanoma cells [3]; 0.4 mg PO,progressed more slowly
same,tumor growth,B16F10 melanoma cells [3]; 1 mg PO,Tumor growth control was observed early on
same,tumor growth,B16F10 melanoma cells [3]; 4 mg PO,Tumor regression was observed
"O=C(O)[C@H](O)[C@@H](O)C(=O)OCCC(c1ccccc1)c1ccccc1 [Compound C, (2R,3R)-4-(3,3-diphenylpropoxy)-2,3-dihydroxy-4-oxobutanoic acid]",decrease in FoxP3 positive CD4+ T-cells compared to placebo,[2],59%
same,increase in GrzmB/INFγ double-positive CD8+ T-cells compared to placebo,[2],62%
same,inhibition of CTLA-4 as compared to control,[2],77%
same,inhibition of KLGR-1 as compared to control,[2],70%
same,inhibition of PD-1 as compared to control,[2],70%
same,inhibition of TIM-3 as compared to control,[2],71%

# Reference: US20250177340A1, “Tartaric Acid Analogs and Uses Thereof” (Lapix Therapeutics, Inc., priority 2021, published 2025)
